# Patent publication US9937178B2, “Methods of identifying and using MDM2 inhibitors” (DUKE UNIVERSITY, priority 2011, dated 2018)
# Assays:
# Akt = assay: Immunoblot of phospho-AKT in lapatinib-treated cells; type: cell-based; conditions: sensitive and resistant cells, 1 μM lapatinib, 50 μM z-VAD
# HER2 = HER2 (Homo sapiens, UniProt P04626); assay: Immunoblot of phospho-HER2 in lapatinib-treated cells; type: cell-based; conditions: 1 μM lapatinib, 24 hours, z-VAD 50 μM; even in resistant cells
# BT474 xenografts = assay: BT474 mammary fat pad xenograft; conditions: 100 mg/kg each drug, twice daily by oral gavage
# Experimental: Forty-eight hours after siRNA transfection, cells were treated with 1 μM lapatinib for 48 hours, and cells were harvested and subjected to Annexin V staining. The percentage of Annexin V-positive cells was analyzed by FACS. Results are expressed as a mean percentage±SEM and analyzed by t-test (*P<0.05). […] The oral administration of lapatinib (100 mg/kg, twice daily by oral gavage) began when the average tumor volume surpassed 300 mm^3. Results are expressed as a mean percentage±SEM. […] After 36 hours, cells were harvested and immunoblotted. […] BT474 and rBT474 cells were injected into the mammary fad pad of each mouse. When tumors developed to a size of 200 mm^3, the mice were randomly assigned to receive vehicle, lapatinib (100 mg/kg), Nutlin-3 (100 mg/kg), or Lapatinib+Nutlin-3 and treated twice daily by oral gavage. Results are expressed as a mean percentage±SEM. […] Percentage of apoptotic cell death was measured by FACS analysis using Annexin V. Results are expressed as a mean percentage±SEM of Annexin V-positive cells (*P<0.05 by t-test).
# Six week-old female nude mice were purchased from NCI Frederic. Xenograft tumors were produced by injection into the mammary fat pad with cells (10×10^6). Tumor volumes were calculated every 3-4 days based on caliper measurements of the short (a) and long (b) tumor diameters (volume=a2b/2). […]
# Mcl-1 = assay: 35[S]-Mcl-1 degradation in cell-free lysates; type: cell-based; conditions: resistant cell lysates, only from cells treated with lapatinib (rBT474)
# Experimental: FIG. 3 is a set of photographs showing that Mcl-1 is stabilized in lapatinib-resistant cells. […] FIG. 3B is a set of immunoblots showing the levels of HER2 and phospho-HER2 in untreated cells and cells treated with lapatinib. Cells were treated with or without lapatinib (1 μM) for 24 hours in the presence of the caspase inhibitor z-VAD (50 μM). The cells were harvested and cell lysates were immunoblotted using antibodies against phospho-HER2 (Y877) and total HER2. FIG. 3C is an immunoblot for phospho-AKT (T308) and total AKT. BT474 and rBT474 cells were treated with 1 μM lapatinib in the presence of 50 μM z-VAD. At the indicated time points, the cells were harvested and immunoblotted. FIG. 3D is an immunoblot for phospho-Erl1/2(T202/Y204) and total Erk1/2. BT474 and rBT474 cells were treated with 1 μM lapatinib in the presence of 50 μM z-VAD. At the indicated time points, the cells were harvested and immunoblotted. […] FIG. 3F is an autoradiograph showing the ^35[S] radioactivity in lysates containing ^35[S]-Mcl-1 at the indicated time points. ^35[S]-labeled Mcl-1 protein was incubated in cell-free lysates prepared from BT474 and rBT474 cells (top) or SKBR3 and rSKBR3 cells (bottom). […] FLAG-Mcl-1 was retrieved by immunoprecipitation using anti-flag agarose, and Mcl-1 ubiquitylation was analyzed by immunoblotting for HA (*non-specific band, **IgG heavy chain). […]
# Sequence of HER2 (P04626 23-1255): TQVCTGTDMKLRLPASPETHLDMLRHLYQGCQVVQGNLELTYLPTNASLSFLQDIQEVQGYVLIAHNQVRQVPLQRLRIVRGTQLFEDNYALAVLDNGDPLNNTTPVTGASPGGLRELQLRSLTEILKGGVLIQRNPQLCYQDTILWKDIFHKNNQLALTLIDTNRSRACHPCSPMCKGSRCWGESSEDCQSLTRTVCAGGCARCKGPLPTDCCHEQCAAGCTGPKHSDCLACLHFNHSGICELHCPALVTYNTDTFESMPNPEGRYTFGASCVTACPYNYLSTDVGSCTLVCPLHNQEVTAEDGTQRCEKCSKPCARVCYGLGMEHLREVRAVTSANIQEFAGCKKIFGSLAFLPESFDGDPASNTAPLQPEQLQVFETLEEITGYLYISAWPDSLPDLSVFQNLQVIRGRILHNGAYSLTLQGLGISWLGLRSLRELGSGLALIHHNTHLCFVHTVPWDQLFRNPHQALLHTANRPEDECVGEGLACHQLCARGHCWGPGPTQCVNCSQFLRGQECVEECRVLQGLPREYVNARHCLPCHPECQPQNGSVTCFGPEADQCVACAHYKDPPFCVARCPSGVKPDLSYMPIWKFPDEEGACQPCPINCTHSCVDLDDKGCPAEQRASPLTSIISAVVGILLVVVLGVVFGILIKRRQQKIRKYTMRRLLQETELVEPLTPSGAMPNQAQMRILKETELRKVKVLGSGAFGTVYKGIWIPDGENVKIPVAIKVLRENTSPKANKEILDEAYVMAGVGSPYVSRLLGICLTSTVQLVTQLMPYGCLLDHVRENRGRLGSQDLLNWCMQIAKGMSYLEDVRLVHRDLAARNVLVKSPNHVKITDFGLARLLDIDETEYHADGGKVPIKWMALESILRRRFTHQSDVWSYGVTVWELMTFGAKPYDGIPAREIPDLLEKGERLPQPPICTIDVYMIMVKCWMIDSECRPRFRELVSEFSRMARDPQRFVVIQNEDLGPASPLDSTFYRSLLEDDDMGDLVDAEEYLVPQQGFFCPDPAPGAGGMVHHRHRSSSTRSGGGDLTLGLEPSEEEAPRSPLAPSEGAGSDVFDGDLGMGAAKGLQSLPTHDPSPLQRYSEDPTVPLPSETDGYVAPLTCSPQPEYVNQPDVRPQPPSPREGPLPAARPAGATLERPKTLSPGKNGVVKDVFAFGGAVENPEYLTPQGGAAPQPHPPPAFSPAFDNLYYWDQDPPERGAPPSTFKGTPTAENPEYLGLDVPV
smiles,measurement,setting,value
CS(=O)(=O)CCNCc1ccc(-c2ccc3ncnc(Nc4ccc(OCc5cccc(F)c5)c(Cl)c4)c3c2)o1 [lapatinib],phosphorylation of Akt,Akt,attenuated
same,HER2 tyrosine autophosphorylation,HER2,inhibited
same,growth of BT474-derived tumors,BT474 xenografts,significantly suppressed
same,Mcl-1 protein half-life,Mcl-1,prolonged
